The subject of this assay is PSMA+HEK cells. Nature of the assay: Luminescence ADCC reporter (CD16α activation) assay with mmAb. The class given is cell-based, human. To be noted: antibody 10^−7-10^−9 M. The protocol: Covalent vs. non-covalent antibody recruitment were compared in functional immune assays. Activation of NK cell CD16α immune receptors was assessed via luminescence based ADCC assays. ADCC was quantified using the ADCC Reportor Bioassay kit (Promega G7010). All ADCC induced luminescence was measured on a SpectraMax i3 plate reader (Molecular Devices). The human IgG isotype control used was purchased from Jackson ImmunoResearch (009-000-003). The human IgG1 monoclonal anti-DNP antibody (mAb) was purchased from Acrobiosystems (DNP-M2). Human IgG from serum was purchased from Innovative Research ([…]1000MG). Anti-DNP depleted serum was made from human IgG from serum (Innovative Research). For PSMA competition controls, 2-PMPA was purchased from Sigma (SML1612). Hek-293T (PSMA+/−) cell lines were generously given by Dr. Cyril Barinka (Institute of Biotechnology CAS, Czech Republic). Ultra low IgG FBS was purchased from Fischer Scientific (A3381901). RPMI-1640 was purchased as a powder from Fischer Scientific (31800089) and resuspended. DMEM was purchased as a powder from Fischer Scientific (12800082) and resuspended. Pen/Strep was purchased from Fischer Scientific (15140-122). FBS was purchased from Fischer Scientific (12484-028). Zeocin was purchased from Fischer Scientific (R25001). HEK-PSMA cells were cultured in DMEM media with 2 mM L-glut, 1% Pen/Strep, 10% FBS, 50 ug/mL Zeocin. HEK cells were cultured in DMEM media with 2 mM L-glut, 1% Pen/Strep, 10% FBS.
Preparation of antibody-CIR/ARM stocks were mixed overnight prior to addition to the ADCC plate. In the case of mmAb and mAb, incubation was carried out at 600 nM antibody and 1.2 μM CIR or ARM. In the case of IgG from serum, incubation was completed at 230 μM antibody and 8.7 μM CIR or ARM. In all cases, DMSO was kept close to 1%. After the overnight incubation, a dilution series was completed on the antibody-CIR/ARM stocks in RPMI (1% DMSO). […] 75 μL of Bio-Glo Luciferase Assay Reagent was added to each well, and luminescence was quantified using the SpectraMax i3 plate reader. […]

The structures appear in SMILES notation.

Take `O=C(O)CC[C@H](NC(=O)N[C@@H](CCCCNC(=O)NCCOCCOCCOCCOCCOCCOCCOCCOC(=O)NCCOCCn1cc(CNc2ccc([N+](=O)[O-])cc2[N+](=O)[O-])nn1)C(=O)O)C(=O)O` [ARM 12, reference compound]: the “CD16α based target immune recognition” value is “largely unable to mediate immune recognition of target HEK cells”.

`O=C(O)CC[C@H](NC(=O)N[C@@H](CCCCNC(=O)NCCOCCOCCOCCOCCOCCOCCOCCOC(=O)n1cnc(CCn2cc(CNc3ccc([N+](=O)[O-])cc3[N+](=O)[O-])nn2)c1)C(=O)O)C(=O)O` [CIR 5]: the “CD16α based target immune recognition” value is “robust target immune recognition”.

Values taken from patent publication US11827624B2, “Covalent immune recruiter compounds for immune cell recognition and associated uses” (McMaster University, priority 2020, dated 2023).
